In EPA's ToxValDB 9.5:
Values joined by “and” are separate entries in the source; they are usually repeats but may differ in a detail not shown here. Identical values can stand only once.

What was measured:
Gallus sp. = details: repeat dose other; oral
Rattus norvegicus [1] = details: repeat dose other; oral
Oryctolagus sp. [2] = details: acute; dermal; New Zealand
Rattus norvegicus [3] = test system: Rattus norvegicus
Oryctolagus sp. [4] = assay: LD0; higher = less toxic; details: acute; dermal; New Zealand
Rattus norvegicus [5] = assay: LD0; higher = less toxic; details: acute
Homo sapiens [6] = details: clinical, oral, M
Rattus norvegicus [7] = details: chronic, oral, diet
Chrysomus sp. = details: oral
Mus musculus [8] = details: repeat dose other; oral
Mus musculus [9] = details: oral, M/F
Rattus norvegicus [10] = details: M/F
Mus musculus [11] = details: developmental, oral, gavage, developmental
Rattus norvegicus [12] = details: subchronic; duration: 90 days; inhalation; M/F; Wistar; hepatic
Homo sapiens [13] = details: clinical, oral, M/F
Mus musculus [14] = details: oral, M/F; remark: listed apart in the source
Canidae = details: chronic; duration: 2 years; oral; diet; M/F; Dog Other; reduced body weight gain, and increased liver and kidney weight
Rattus norvegicus [15] = details: short-term, duration: 28 days, oral, gavage
Mus musculus [16] = details: for LC50: acute
Mus musculus [17] = details: uterotrophic, injection, Active
Rattus norvegicus [18] = details: uterotrophic, Active
Pelecanus occidentalis = details: oral
[19] = acute, oral, gavage, Sprague-Dawley
[20] = chronic, duration: 104 weeks, hepatic necrosis
[21] = subchronic, gavage, clinical signs (lethargy, prostration, and ataxia and hematological changes
[22] = chronic, duration: 27 weeks, oral, diet, liver lesions
[23] = radioactive iodide uptake inhibition (raiu) in the thyroid

Work on [Ba+2].[OH-].[OH-] [Barium hydroxide] yielded an LOAEL (Gallus sp.) of 41.7 mg/kg-day, an NOAEL (Gallus sp.) of 20.8 mg/kg-day and an LOAEL (Rattus norvegicus [1]) of 19.8 mg/kg-day.
In the case of CCCCC(CC)COP(=O)(O)O (stereo not given) [2-Ethylhexyl dihydrogen phosphate], the LD50 (Oryctolagus sp. [2]) is reported as over 4640 mg/kg, the LD50 (Rattus norvegicus [3]; [19]) is reported as 4100 mg/kg and 2710 mg/kg and the LD0 (Oryctolagus sp. [4]) is reported as 11300 mg/kg. It also gave an LD0 (Rattus norvegicus [5]; oral, gavage) of 3640 mg/kg.
CC[C@@H]1CCN[C@H](C(=O)N[C@@H]([C@H]2O[C@H](SC)[C@H](O)[C@@H](O)[C@H]2O)[C@H](C)Cl)C1 [Pirlimycin] showed an NOEL (Homo sapiens [6]; capsule, Clostridium difficile in stool) of 50 mg.
Compound O=C(O)c1ccc(C(=O)O)cc1 [Terephthalic acid] has an LD0 (Rattus norvegicus [5]; oral) of 2000 mg/kg and an NOEL (Rattus norvegicus [7]; duration: 2 years, Bladder: Hyperplasia) of 142 mg/kg-day.
Compound ClC1=C(Cl)C2(Cl)C3C(Cl)C(Cl)CC3C1(Cl)C2(Cl)Cl (stereo not given) [Technical chlordane] has an LOAEL (Chrysomus sp.) of 10.7 mg/kg-day, an NOAEL (Chrysomus sp.) of 2.14 mg/kg-day and an LOAEL (Mus musculus [8]) of 9.2 mg/kg-day. For the same compound, the NOAEL (Mus musculus [8]) was 4.6 mg/kg-day, the LOAEL (Mus musculus [9]; [20]) was 0.75 mg/kg-day and the NOAEL (Mus musculus [9]; [20]) was 0.15 mg/kg-day. For the same compound, the NOAEL (Rattus norvegicus [10]; subchronic, inhalation, hepatic effects) was 1 mg/m3, the LOAEL (Mus musculus [11]; duration: 7 days, M/F, albino) was 1 mg/kg-day and the NOAEL (Rattus norvegicus [12]) was 0.1 mg/m3.
For OC(O)C(Cl)(Cl)Cl [Chloral hydrate], the LOAEL (Homo sapiens [13]; central nervous system depression and gi irritation in humans) was 10.7 mg/kg-day.
With c1ccc(Nc2ccccc2)cc1 [Diphenylamine] the NOAEL (Mus musculus [14]; subchronic, duration: 90 days, diet, CD1) was 2.1 mg/kg-day, the LEL (Canidae) was 25 mg/kg-day and the NOEL (Canidae) was 2.5 mg/kg-day. For the same compound, the NOEL (Rattus norvegicus [15]; M/F, Fischer 344, Clinical Observation: Dark brown colored bedding + Body Weight Changes: Weight gain decrease + Food Consumption: decrease + Hematology: RBC …) was 111 mg/kg-day.
Compound Cc1ccc(O)c(C)c1 [2,4-Dimethylphenol] has an LC50 (Mus musculus [16]; oral) of 809 mg/kg, an NOAEL (Mus musculus [16]; subchronic, duration: 90 days, oral, gavage, F) of 50 mg/kg-day and an LC50 (Rattus norvegicus [3]; acute, oral) of 2300 mg/kg. The NOAEL (Mus musculus [14]; subchronic, duration: 90 days, gavage, Crl:CD-1(ICR)BR-VAF+, Whole Body Effects) was 50 mg/kg-day, the LOAEL (Mus musculus [9]; [21]) was 250 mg/kg-day and the NOAEL (Mus musculus [9]; [21]) was 50 mg/kg-day.
For O=S(=O)([O-])c1cc(Nc2nc(Nc3ccccc3)nc(N3CCOCC3)n2)ccc1C=Cc1ccc(Nc2nc(Nc3ccccc3)nc(N3CCOCC3)n2)cc1S(=O)(=O)[O-].[Na+].[Na+], the LD50 (Rattus norvegicus [3]; acute, oral, Sprague-Dawley) was 7000 mg/kg, the LD50 (Rattus norvegicus [3]; [19]) was over 5000 mg/kg and the NOAEL (Rattus norvegicus [3]; chronic, duration: 24 months, oral, diet, F, Wistar) was 791 mg/kg-day. For the same compound, the NOAEL (Rattus norvegicus [3]; chronic, duration: 24 months, oral, diet, M, Wistar) was 524 mg/kg-day, the NOAEL (Rattus norvegicus [3]; short-term, duration: 14 days, oral, gavage, F, Wistar) was 1000 mg/kg-day and the NOAEL (Rattus norvegicus [3]; short-term, duration: 14 days, oral, gavage, M, Wistar) was 1000 mg/kg-day. The LD0 (Rattus norvegicus [5]; dermal, semiocclusive, Wistar) was over 2000 mg/kg and the NOAEL (Rattus norvegicus [15]; Wistar) was 825 mg/kg-day.
Compound SCc1ccccc1 [Benzenemethanethiol] has an LC50 (Mus musculus [16]; inhalation, Swiss) of 904 mg/m3, an LD50 (Rattus norvegicus [3]; acute, injection, Intraperitoneal, Wistar) of 373 mg/kg and an LD50 (Rattus norvegicus [3]; acute, oral, gavage, Wistar) of 493 mg/kg. For the same compound, the LD0 (Rattus norvegicus [5]; dermal, semiocclusive, Sprague-Dawley) was at least 2000 mg/kg.
Clc1ccc(C(c2ccc(Cl)cc2)C(Cl)(Cl)Cl)cc1 [DDT] showed an LEL (Mus musculus [17]; duration: 3 days, intraperitoneal) of 100 mg/kg-day, an LEL (Mus musculus [17]; duration: 3 days, subcutaneous) of 1000 mg/kg-day and an LEL (Mus musculus [17]; duration: 5 days, subcutaneous) of 10 mg/kg-day. It also gave an LEL (Rattus norvegicus [18]; duration: 1 days, injection, intraperitoneal) of 12.5 mg, an LEL (Rattus norvegicus [18]; duration: 3 days, injection, intraperitoneal) of 4 mg and an LEL (Rattus norvegicus [18]; duration: 3 days, oral) of 100 mg/kg-day. The LOAEL (Pelecanus occidentalis) was 0.028 mg/kg-day, the NOAEL (Pelecanus occidentalis) was 0.0028 mg/kg-day and the LOAEL (Rattus norvegicus [1]) was 4 mg/kg-day. The NOAEL (Rattus norvegicus [1]) was 0.8 mg/kg-day, the LOAEL (Rattus norvegicus [10]; [22]) was 0.39 mg/kg-day and the NOEL (Rattus norvegicus [10]; [22]) was 0.05 mg/kg-day. For the same compound, the LOAEL (Mus musculus [11]; duration: 14 days, M, NMRI) was 0.5 mg/kg-day and the NOEL (Rattus norvegicus [7]; duration: 27 weeks, Liver: Lesions) was 0.05 mg/kg-day.
Compound CN(C)C=O [N,N-Dimethylformamide] has an NOAEL (Mus musculus [14]; chronic, duration: 119 days, diet, CD1, hepatic) of 96 mg/kg-day.
For CC(CCc1ccc(O)cc1)NCC(O)c1ccc(O)cc1.Cl (stereo not given) [Ractopamine hydrochloride], the NOEL (Homo sapiens [6]; Changes in cardiovascular function variables) was 0.067 mg/kg-day.
[O-][Cl+3]([O-])([O-])[O-] [Perchlorate] was tested, and the LOEL (Homo sapiens [13]; [23]) was 0.02 mg/kg-day and the NOEL (Homo sapiens [13]; [23]) was 0.007 mg/kg-day.
